From patent publication EP1343508B1, “USE OF AN OESTROGEN IN THE MANUFACTURE OF A COMPOSITION CONTAINING OESTROGEN FOR THE TREATMENT OF ATROPHIC VAGINITIS” (Novo Nordisk Femcare AG, priority 2000, dated 2002)
Marks after values point to notes of the source that are not given here.

Legend:
[1] = tested on: postmenopausal women with atrophic vaginitis; assay: Patients with vaginal pH below 5.5, Example 3; assay type: in vivo
Procedure: Efficacy was measured with composite scores of vaginal symptoms (dryness, soreness, and irritation) and vaginal health (secretions, epithelial integrity, surface thickness, and pH). Vaginal and urethral cytology analyses were also performed, and the vaginal maturation value was determined. Safety assessments included endometrial biopsies. […] All vaginal tablets were identical in appearance. Patients inserted 1 tablet daily for 14 days. Thereafter, patients inserted 1 tablet twice per week (Sunday and Thursday) for the remainder of the trial. Patients were to insert the tablets at the same time each day (preferably at bedtime). Patients were evaluated for efficacy and safety at Week - 4 (screening), Week 0 (baseline), and Weeks 2, 7, and 12. Investigators used a severity scale of none, mild, moderate, or severe to assess vaginal health characteristics (secretions, epithelial integrity, surface thickness, color, and pH). Severity categories were assigned ascending scores from 0 (none) to 3 (severe) for analysis. To avoid multiple endpoint issues, composite scores were defined. A composite score for vaginal health was defined as the average of the individual vaginal health characteristic scores. The composite score and the change from baseline for the composite score were examined at each time point. Differences within and between treatment groups were analyzed using an analysis of variance (ANOVA). […] Efficacy was measured with composite scores of vaginal symptoms (dryness, soreness, and irritation) and vaginal health (secretions, epithelial integrity, surface thickness, and pH). Vaginal and urethral cytology analyses were also performed, and the vaginal maturation value was determined. Safety assessments included endometrial biopsies. […] All vaginal tablets were identical in appearance. Patients inserted 1 tablet daily for 14 days. Thereafter, patients inserted 1 tablet twice per week (Sunday and Thursday) for the remainder of the trial. Patients were to insert the tablets at the same time each day (preferably at bedtime). Patients were evaluated for efficacy and safety at Week - 4 (screening), Week 0 (baseline), and Weeks 2, 7, and 12. Investigators used a severity scale of none, mild, moderate, or severe to assess vaginal health characteristics (secretions, epithelial integrity, surface thickness, color, and pH). Severity categories were assigned ascending scores from 0 (none) to 3 (severe) for analysis. To avoid multiple endpoint issues, composite scores were defined. A composite score for vaginal health was defined as the average of the individual vaginal health characteristic scores. The composite score and the change from baseline for the composite score were examined at each time point. Differences within and between treatment groups were analyzed using an analysis of variance (ANOVA).

endometrium = assay: Endometrial biopsy at end of study, Example 3; assay type: in vivo, postmenopausal women; conditions: Week 12, N = 32
Procedure: (§1) Efficacy was measured with composite scores of vaginal symptoms (dryness, soreness, and irritation) and vaginal health (secretions, epithelial integrity, surface thickness, and pH). Vaginal and urethral cytology analyses were also performed, and the vaginal maturation value was determined. Safety assessments included endometrial biopsies.
(§2) Vaginal and urethral cell samples were harvested and analyzed by independent cytologists to determine the percentages of parabasal, intermediate, and superficial cells. Maturation values were calculated according to the following equation: maturation value = 1.0 × [superficial cells, %] + 0.5 × [intermediate cells, %] [formula] Endometrial biopsies were performed at the end of the study in patients with intact uteri. The number of patients with abnormal biopsies was compared between treatment groups.

[2] = tested on: superficial vaginal and urethral cells; assay: Superficial vaginal and urethral cells taken together, subjects per category, Example 3; assay type: in vivo, postmenopausal women; conditions: for percentage of subjects with both superficial vaginal and urethral cells less than or equal to 5% / subjects with percentages of both superficial vaginal and urethral cells less than or equal to 5%: Week 0; for percentage of subjects with increases in percentages of both superficial vaginal and urethral cells / subjects with increases in percentages of both superficial vaginal and urethral cells: Week 12
Procedure: as §1
(§3) All vaginal tablets were identical in appearance. Patients inserted 1 tablet daily for 14 days. Thereafter, patients inserted 1 tablet twice per week (Sunday and Thursday) for the remainder of the trial. Patients were to insert the tablets at the same time each day (preferably at bedtime). Patients were evaluated for efficacy and safety at Week - 4 (screening), Week 0 (baseline), and Weeks 2, 7, and 12.
as §2

[3] = tested on: superficial urethral cells; assay: Urethral cytology, percentage of superficial cells, Example 3; assay type: in vivo, postmenopausal women
Procedure: as §1, §3, §2

[4] = 24-hour serum estradiol profile after vaginal tablet insertion (radioimmunoassay), Example 2; assay type: in vivo, postmenopausal women; conditions: for patients with areas under the curve below 600 pg hr/mL at both time points / percentage of patients with areas under the curve below 600 pg hr/mL at both time points: weeks 0 and 12; for Maximal concentration / Time to maximal concentration: mean ± SD
Text: After the screening visit, patients received no study treatment during the 4-week run-in period prior to the baseline visit. […] The vaginal tablets were identical in appearance. Patients inserted 1 tablet intravaginally, once daily for the initial 2 weeks of the study and then twice per week (Sunday and Thursday) for the remaining 10 weeks. Patients were instructed to use their medication at a consistent time each day, preferably in the morning.
Upon presentation to the clinic for each visit, a vaginal cytology specimen was obtained. Patients then inserted the tablets. […] The blood samples obtained at 30 minutes before insertion, and at 6, 12, and 24 hours after insertion were also used to determine the FSH concentration via immunoradiometric assay.
Data for area under the curve and maximal concentration were converted to a logarithmic scale, and changes from first dose (at the baseline visit) in the logarithmic values were estimated using 95% confidence intervals derived from paired t-tests. […] Differences within treatment groups in FSH concentration were determined using the Wilcoxon signed rank test based on changes from baseline in mean concentrations at weeks 2 and 12. Mean concentrations were defined as the average concentrations obtained at 30 minutes before tablet insertion and 6, 12, and 24 hours after insertion.

[5] = 10 µg E2 vaginal tablet, Week 0
[6] = 10 µg E2 vaginal tablet, Week 12
[7] = 25 µg E2 vaginal tablet, Week 0
[8] = 25 µg E2 vaginal tablet, Week 12

Endometrial Biopsy Result Abnormal, percentage of patients (endometrium; 10 µg E2): 0.0%
Endometrial Biopsy Result Normal, number of patients (endometrium; 10 µg E2): 25
Endometrial Biopsy Result Normal, percentage of patients (endometrium; 10 µg E2): 78.1%
Endometrial Biopsy Result Other, number of patients (endometrium; 10 µg E2): 7
Endometrial Biopsy Result Other, percentage of patients (endometrium; 10 µg E2): 21.9%
Endometrial Biopsy Result Abnormal, number of patients (endometrium; 10 µg E2, hyperplasia or carcinoma): 0
Endometrial Biopsy Result Abnormal, percentage of patients (endometrium; 25 µg E2): 3.1%
Endometrial Biopsy Result Normal, number of patients (endometrium; 25 µg E2): 28
Endometrial Biopsy Result Normal, percentage of patients (endometrium; 25 µg E2): 87.5%
Endometrial Biopsy Result Other, number of patients (endometrium; 25 µg E2): 3
Endometrial Biopsy Result Other, percentage of patients (endometrium; 25 µg E2): 9.4%
patients with areas under the curve below 600 pg hr/mL at both time points ([4]; 10 µg E2): 22 patients
percentage of patients with areas under the curve below 600 pg hr/mL at both time points ([4]; 10 µg E2): 96%
Serum concentration over 24 hours [4, 5]: 15 pg/mL
Maximal concentration [4, 5]: 35 ± 17 pg/mL
Area under the curve ([4]; 10 µg E2 vaginal tablet, Week 0, serum E2, mean ± SD): 0.349 ± 0.107 ng·h/mL
Serum concentration over 24 hours [4, 6]: 11 pg/mL
Maximal concentration [4, 6]: 22 ± 17 pg/mL
Time to maximal concentration [4, 6]: 10 ± 8 h
Area under the curve ([4]; 10 µg E2 vaginal tablet, Week 12, serum E2, mean ± SD): 0.264 ± 0.12 ng·h/mL
patients with areas under the curve below 600 pg hr/mL at both time points ([4]; 25 µg E2): 14 patients
percentage of patients with areas under the curve below 600 pg hr/mL at both time points ([4]; 25 µg E2): 74%
Serum concentration over 24 hours [4, 7]: 22 pg/mL
Time to maximal concentration [4, 7]: 15 ± 9 h
Area under the curve ([4]; 25 µg E2 vaginal tablet, Week 0, repeated Table 2): 538000 ± 265000 ng·h/mL
Area under the curve ([4]; 25 µg E2 vaginal tablet, Week 0, serum E2, mean ± SD): 0.538 ± 0.265 ng·h/mL
Serum concentration over 24 hours [4, 8]: 23 pg/mL
Time to maximal concentration [4, 8]: 13 ± 6 h
Area under the curve ([4]; 25 µg E2 vaginal tablet, Week 12, serum E2, mean ± SD): 0.563 ± 0.341 ng·h/mL
Structure (SMILES): C[C@]12CC[C@@H]3c4ccc(O)cc4CC[C@H]3[C@@H]1CC[C@@H]2O [E2, 17β-estradiol]
Patients With Vaginal pH Values Below 5.5, (%) ([1]; 10 µg E2, Week 0): (30.3) %
Patients With Vaginal pH Values Below 5.5, n/N ([1]; 10 µg E2, Week 0): 27/89
Patients With Vaginal pH Values Below 5.5, (%) ([1]; 10 µg E2, Week 2): (79.8)^b %
Patients With Vaginal pH Values Below 5.5, n/N ([1]; 10 µg E2, Week 2): 67/84
Patients With Vaginal pH Values Below 5.5, (%) ([1]; 10 µg E2, Week 7): (71.3)^c %
Patients With Vaginal pH Values Below 5.5, n/N ([1]; 10 µg E2, Week 7): 57/80
Patients With Vaginal pH Values Below 5.5, (%) ([1]; 10 µg E2, Week 12): (76.1)^b %
Patients With Vaginal pH Values Below 5.5, n/N ([1]; 10 µg E2, Week 12): 54/71
Patients With Vaginal pH Values Below 5.5, (%) ([1]; 25 µg E2, Week 0): (34.4) %
Patients With Vaginal pH Values Below 5.5, n/N ([1]; 25 µg E2, Week 0): 31/90
Patients With Vaginal pH Values Below 5.5, (%) ([1]; 25 µg E2, Week 2): (73.6)^a %
Patients With Vaginal pH Values Below 5.5, n/N ([1]; 25 µg E2, Week 2): 64/87
Patients With Vaginal pH Values Below 5.5, n/N ([1]; 25 µg E2, Week 7): 71/83
Patients With Vaginal pH Values Below 5.5, (%) ([1]; 25 µg E2, Week 12): (79.7)^b %
Patients With Vaginal pH Values Below 5.5, n/N ([1]; 25 µg E2, Week 12): 63/79
percentage of patients with vaginal pH values below 5.5 ([1]; each treatment group (25 or 10 µg E2), Week 0): approximately 35%
percentage of subjects with both superficial vaginal and urethral cells less than or equal to 5% ([2]; 10 µg E2): 85%
subjects with percentages of both superficial vaginal and urethral cells less than or equal to 5% ([2]; 10 µg E2): 53 subjects
percentage of subjects with increases in percentages of both superficial vaginal and urethral cells ([2]; 10 µg E2): 71%
subjects with increases in percentages of both superficial vaginal and urethral cells ([2]; 10 µg E2): 44 subjects
percentage of subjects with both superficial vaginal and urethral cells less than or equal to 5% ([2]; 25 µg E2): 81%
subjects with percentages of both superficial vaginal and urethral cells less than or equal to 5% ([2]; 25 µg E2): 57 subjects
percentage of subjects with increases in percentages of both superficial vaginal and urethral cells ([2]; 25 µg E2): 74%
subjects with increases in percentages of both superficial vaginal and urethral cells ([2]; 25 µg E2): 52 subjects
percentage of superficial urethral cells, Mean ([3]; 10 µg E2, Week 0): 2.5%
percentage of superficial urethral cells, Mean ([3]; 10 µg E2, Week 2): 16.7%
percentage of superficial urethral cells, mean Change from baseline ([3]; 10 µg E2, Week 2): 14.1^c %
percentage of superficial urethral cells, Mean ([3]; 10 µg E2, Week 7): 13.5%
percentage of superficial urethral cells, mean Change from baseline ([3]; 10 µg E2, Week 7): 10.7%
percentage of superficial urethral cells, Mean ([3]; 10 µg E2, Week 12): 9.5%
percentage of superficial urethral cells, mean Change from baseline ([3]; 10 µg E2, Week 12): 6.8%
percentage of superficial urethral cells, Mean ([3]; 25 µg E2, Week 0): 3.2%
percentage of superficial urethral cells, Mean ([3]; 25 µg E2, Week 2): 21.9%
percentage of superficial urethral cells, mean Change from baseline ([3]; 25 µg E2, Week 2): 19.2^a,b %
percentage of superficial urethral cells, Mean ([3]; 25 µg E2, Week 7): 17.6%
percentage of superficial urethral cells, mean Change from baseline ([3]; 25 µg E2, Week 7): 14.2^d %
percentage of superficial urethral cells, Mean ([3]; 25 µg E2, Week 12): 11.2%
percentage of superficial urethral cells, mean Change from baseline ([3]; 25 µg E2, Week 12): 7.5%
